From patent US20260184697A1, “EZH1/2 INHIBITOR, PREPARATION THEREOF, AND USE THEREOF IN ANTI-TUMOR THERAPY” (JIANGSU TASLY DIYI PHARMACEUTICAL CO., LTD., priority 2022, published 2026)
Where two headings read alike, the source gives them in different places.

Assays:
[1] = tested on: H3K27Me3 methylation in Karpas-422 cells; test: H3K27Me3 cell method, inhibition of H3K27Me3 methylation (Test Example 2); type: cell-based, human
Procedure: Karpas-422 (Nanjing Kebai, CBP60629) cells were seeded in a 96-well plate (Corning, 3894) at 15,000 cells per well in culture medium (80% 1640 (Hyclone, SH30809.01)+20% FBS (Corning, 35-081-CV)), and then added with different concentrations of compounds for treatment. The cell growth group without adding compounds is used as a positive control (maximum signal control), and the medium is used as a negative control (minimum signal control), while ensuring that in each reaction well, the final concentration of DMSO was 0.2%. Compounds and cells were incubated for 3 days in a cell culture incubator (37° C., 5% CO2). The 96-well plate was taken out from the cell culture incubator and equilibrated to room temperature, and 25 ul of cell suspension was taken out into a 384-well plate. The CCK8 (Beiyuntian, C0040) detection reagent was added, incubated at 37° C. for 1 h, and […] was detected. The rest of the cells followed the procedure of the kit EPIgeneous H3K27Me3 cellular kit (Cisbio, 62KC3PAE) to carry out experiment, read HTRF signal with BMG PHERAStar. […] By GraphPad Prism 6 with log(inhibitor)vs.response-Variable slope model simulation, the IC50 of the compound on cell activity inhibition was calculated. The fitting equation is: Y=Bottom+(Top−Bottom)/(1+10^((Log IC50−X)*HillSlope)), wherein Y represents the inhibition rate, and X represents the known concentration of the compound after Log.

EZH1/SUZ/EED = target: T1, EZH1/SUZ/EED (Homo sapiens, UniProt O75530+Q15022+Q92800); test: Inhibitory effect on EZH1 by the MTase-Glo method (Test Example 1); type: biochemical; conditions: EZH1/SUZ/EED 25 nM, H3 peptide 10 μM, SAM 3 μM, 30° C. 3 h, read-out: Test Example 1 WT EZH1 IC50
T1 construct: purchased BPS 51006
Procedure, shortened: (§1)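 EZH2/SUZ/EED (6.25 nM) or EZH1/SUZ/EED (25 nM) pre-incubated 15 min with compound in pH 7.6 Bicine buffer, 0.5% DMSO. Biotinylated H3(21-44) peptide 10 μM plus SAM 3 μM reacted 3 h at 30 °C; MTase-Glo luminescence normalized to controls, IC50 from variable-slope fit.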

Karpas-422 cells = test: Anti-proliferation by Cell Titer-Glo method (Test Example 3); type: cell-based; conditions: Homo sapiens
Procedure: Karpas-422 (Nanjing Kebai, CBP60629) cells were seeded in a 96-well plate (Corning, 3894) at 1,000 cells per well in growth medium (80% 1640 (Hyclone, SH30809.01)+20% FBS (Corning, 35-081-CV)), in a total of 100 μL, and then was added with 25 μL of 5-fold different concentrations of compounds diluted in growth medium. The cell growth group without compound addition was used as a positive control (maximum signal control), and the medium was used as a negative control (minimum signal control), while ensuring that the final contration of DMSO in each reaction well was 0.2%. Then the 96-well cell plate was placed in a cell culture incubator (37° C., 5% CO2) and incubated for 3 days. On the fourth day, the cell culture plate was taken out of the incubator, using a row gun to gently blow the cells up and down to mix, removing 62.5 μL of the cell suspension, adding 50 μL of growth medium and 12.5 μL of compounds of 5 times different concentrations, and then putting them in the cell incubator to incubate for 4 days. On the eighth day, the same method was used as the fourth day to treat the cells, then incubating in the cell culture incubator for 3 days. On the eleventh day, the Cell-Titer Glo (Promega, G7573) was used to detect cell viability, and a microplate reader was used to detect the signal value of luminescence.
The inhibition rate of different concentrations of compounds on cells was calculated as inhibition rate=[1−(compound signal value−negative control signal value)/(positive control signal value-negative control signal value)][…]. The IC50 of the compound on cell activity inhibition was calculated by GraphPad Prism 6 with log(inhibitor) vs. response-Variable slope model fitting. The fitting equation is: Y=Bottom+(Top−Bottom)/(1+10^((Log IC50−X)*Hill Slope)), wherein Y represents the inhibition rate, and X represents the known concentration of the compound after Log.

EZH2/SUZ/EED = target: T2, EZH2/SUZ/EED (Homo sapiens, UniProt O75530+Q15022+Q15910); test: Inhibitory effect on EZH2 by the MTase-Glo method (Test Example 1); type: biochemical; conditions: EZH2/SUZ/EED 6.25 nM, H3 peptide 10 μM, SAM 3 μM, 30° C. 3 h, read-out: Test Example 1 WT EZH2 IC50
T2 construct: purchased BPS 51003
Procedure, shortened: as §1

[2] = Karpas-422 cells, Cell-Titer Glo on the eleventh day, read-out: Test Example 3 Karpas-422 cell anti-proliferation IC50
[3] = Homo sapiens, KARPAS-422, 72 h, Karpas-422 cells, 3 days incubation, HTRF signal, read-out: Test Example 2 H3K27Me3 inhibition (Karpas-422) IC50
[4] = Homo sapiens, KARPAS-422, 72 h, read-out: Test Example 2 H3K27Me3 inhibition (Karpas-422) IC50(nM)
[5] = KARPAS-422, read-out: Test Example 3 Karpas-422 cell anti-proliferation IC50(nM)

T1 sequence (Q92800 2-747 limits assumed): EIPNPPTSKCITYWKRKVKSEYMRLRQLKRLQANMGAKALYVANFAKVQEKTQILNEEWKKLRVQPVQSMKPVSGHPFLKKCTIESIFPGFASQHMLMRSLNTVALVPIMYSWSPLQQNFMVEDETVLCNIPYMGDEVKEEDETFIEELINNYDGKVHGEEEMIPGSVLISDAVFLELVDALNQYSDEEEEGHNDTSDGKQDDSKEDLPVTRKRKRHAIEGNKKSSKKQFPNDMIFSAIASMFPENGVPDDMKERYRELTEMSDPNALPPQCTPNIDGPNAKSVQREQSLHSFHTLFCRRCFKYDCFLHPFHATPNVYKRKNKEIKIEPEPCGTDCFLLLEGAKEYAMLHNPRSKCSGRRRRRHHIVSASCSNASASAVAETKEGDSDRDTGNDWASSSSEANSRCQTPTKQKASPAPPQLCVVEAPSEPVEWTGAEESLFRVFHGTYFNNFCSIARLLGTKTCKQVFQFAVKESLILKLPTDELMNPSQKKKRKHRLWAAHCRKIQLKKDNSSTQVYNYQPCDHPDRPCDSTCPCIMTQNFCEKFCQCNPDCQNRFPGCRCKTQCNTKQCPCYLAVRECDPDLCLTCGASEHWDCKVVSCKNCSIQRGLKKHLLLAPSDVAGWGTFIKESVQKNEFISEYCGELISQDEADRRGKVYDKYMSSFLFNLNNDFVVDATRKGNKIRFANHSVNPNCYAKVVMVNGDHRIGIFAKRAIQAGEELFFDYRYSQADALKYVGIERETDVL
T1 sequence (Q15022 2-739 partner limits assumed): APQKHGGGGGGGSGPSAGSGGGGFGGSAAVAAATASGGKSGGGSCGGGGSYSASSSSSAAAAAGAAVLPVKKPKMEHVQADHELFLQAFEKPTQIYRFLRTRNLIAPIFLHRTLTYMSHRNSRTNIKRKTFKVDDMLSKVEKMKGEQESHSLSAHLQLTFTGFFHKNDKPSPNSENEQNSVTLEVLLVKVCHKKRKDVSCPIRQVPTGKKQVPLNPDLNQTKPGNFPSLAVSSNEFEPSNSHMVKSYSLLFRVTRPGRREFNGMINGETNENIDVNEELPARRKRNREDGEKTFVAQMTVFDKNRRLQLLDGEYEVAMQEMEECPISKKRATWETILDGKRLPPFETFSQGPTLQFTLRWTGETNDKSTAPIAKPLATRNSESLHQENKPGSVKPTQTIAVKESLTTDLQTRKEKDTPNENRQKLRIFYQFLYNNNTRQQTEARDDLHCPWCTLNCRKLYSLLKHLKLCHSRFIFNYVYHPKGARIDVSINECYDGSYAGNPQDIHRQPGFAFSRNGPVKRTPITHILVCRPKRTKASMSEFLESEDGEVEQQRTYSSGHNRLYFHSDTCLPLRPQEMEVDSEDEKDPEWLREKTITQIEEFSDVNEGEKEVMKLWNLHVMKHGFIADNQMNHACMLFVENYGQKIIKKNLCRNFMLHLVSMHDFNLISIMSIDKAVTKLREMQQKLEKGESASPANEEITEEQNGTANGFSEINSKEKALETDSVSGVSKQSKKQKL
T1 sequence (O75530 2-441 partner limits assumed): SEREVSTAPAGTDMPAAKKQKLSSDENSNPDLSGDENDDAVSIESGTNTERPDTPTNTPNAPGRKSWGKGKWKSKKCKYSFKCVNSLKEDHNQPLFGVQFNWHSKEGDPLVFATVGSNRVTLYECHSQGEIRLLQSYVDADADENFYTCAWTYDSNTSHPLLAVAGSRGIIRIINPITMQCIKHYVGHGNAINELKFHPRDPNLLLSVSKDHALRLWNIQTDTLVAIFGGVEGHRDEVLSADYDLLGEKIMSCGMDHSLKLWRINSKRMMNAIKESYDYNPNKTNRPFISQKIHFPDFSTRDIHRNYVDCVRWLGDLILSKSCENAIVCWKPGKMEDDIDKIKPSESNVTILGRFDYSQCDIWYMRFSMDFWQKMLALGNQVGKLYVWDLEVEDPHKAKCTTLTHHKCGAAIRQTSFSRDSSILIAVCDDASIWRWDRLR
T2 sequence (Q15910 2-746 limits assumed): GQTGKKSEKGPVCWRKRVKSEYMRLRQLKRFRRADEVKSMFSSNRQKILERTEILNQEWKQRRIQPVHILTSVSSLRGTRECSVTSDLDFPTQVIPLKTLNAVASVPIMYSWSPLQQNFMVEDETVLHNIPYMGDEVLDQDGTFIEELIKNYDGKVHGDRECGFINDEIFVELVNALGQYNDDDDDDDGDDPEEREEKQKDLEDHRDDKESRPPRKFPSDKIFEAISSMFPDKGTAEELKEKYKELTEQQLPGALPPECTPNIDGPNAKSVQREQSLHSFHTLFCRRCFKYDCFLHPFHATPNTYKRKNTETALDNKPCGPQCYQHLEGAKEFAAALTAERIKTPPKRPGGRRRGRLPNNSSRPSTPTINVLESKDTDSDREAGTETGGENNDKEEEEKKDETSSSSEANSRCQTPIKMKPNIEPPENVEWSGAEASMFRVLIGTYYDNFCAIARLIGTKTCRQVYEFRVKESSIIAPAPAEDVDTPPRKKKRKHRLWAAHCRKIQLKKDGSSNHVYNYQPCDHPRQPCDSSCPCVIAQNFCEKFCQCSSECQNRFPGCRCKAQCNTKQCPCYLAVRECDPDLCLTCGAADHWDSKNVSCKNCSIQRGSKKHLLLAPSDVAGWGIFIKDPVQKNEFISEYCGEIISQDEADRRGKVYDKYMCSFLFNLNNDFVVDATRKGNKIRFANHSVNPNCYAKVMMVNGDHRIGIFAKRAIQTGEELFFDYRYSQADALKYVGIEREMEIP
T2 sequence (Q15022 2-739 partner limits assumed): as the sequence (Q15022 2-739 partner limits assumed) above
T2 sequence (O75530 2-441 partner limits assumed): as the sequence (O75530 2-441 partner limits assumed) above

Row | IC50 ([1]; Karpas-422 cells, 3 days incubation, HTRF signal, read-out: Test Example 2 H3K27Me3 inhibition (Karpas-422) IC50) | IC50 (EZH1/SUZ/EED) | IC50 (Karpas-422 cells; [2]) | IC50 (EZH2/SUZ/EED) | IC50 [1, 3] | Structure (SMILES) | IC50 [1, 4] | IC50 (Karpas-422 cells; [5])
1 | 73.8 nM | 162 nM | 93.8 nM | 8.8 nM |  | COC1CN(C2CCC(C3COc4c(Cl)cc(C(=O)NCc5c(C)cc(C)[nH]c5=O)c(C)c4O3)CC2)C1 (single isomer, unassigned) [Compound 61] |  | 
2 |  | 88.5 nM | 42.4 nM | 3.9 nM | 31.2 nM | Cc1cc(C)c(CNC(=O)c2cc(Cl)c3c(c2C)OC(C2CCC(N(C)C)CC2)CO3)c(=O)[nH]1 (stereo not drawn) [Compound 2] |  | 
3 |  | 4.8 nM | 1.5 nM | 8.1 nM | 1.7 nM | CSc1cc(C)[nH]c(=O)c1CNC(=O)c1cc(Cl)c2c(c1C)O[C@@H]([C@H]1CC[C@@H](N3CC(OC4CC4)C3)CC1)CO2 [Compound 11] |  | 
4 |  | 7.4 nM | 17.7 nM | 3.5 nM | 22.8 nM | CSc1cc(C)[nH]c(=O)c1CNC(=O)c1cc(Cl)c2c(c1C)O[C@@H]([C@H]1CC[C@@H](N3CCN(C)CC3)CC1)CO2 [Compound 18] |  | 
5 |  | 3.3 nM | 1.6 nM | 3.1 nM | 3.2 nM | [2H]C([2H])([2H])OC1CN([C@H]2CC[C@@H]([C@H]3COc4c(Cl)cc(C(=O)NCc5c(SC)cc(C)[nH]c5=O)c(C)c4O3)CC2)C1 [Compound 20] |  | 
6 |  |  | 5.8 nM |  | 6.2 nM | CSc1cc(C)[nH]c(=O)c1CNC(=O)c1cc(Cl)c2c(c1C)O[C@@H]([C@H]1CC[C@@H](N3CC(CF)C3)CC1)CO2 [Compound 34] |  | 
7 |  |  | 472 nM |  |  | COc1cc(C)[nH]c(=O)c1CNC(=O)c1cc(Cl)c2c(c1C)O[C@@H]([C@H]1CC[C@H](N3CC[C@@H](OC)C3)CC1)CO2 [Compound 122] |  | 
8 |  |  | 1.7 nM | 7.1 nM | 1.9 nM | CSc1cc(C)[nH]c(=O)c1CNC(=O)c1cc(C#N)c2c(c1C)O[C@@H]([C@H]1CC[C@@H](N3CC(OC(F)F)C3)CC1)CO2 [Compound 163] |  | 
9 |  |  | 46.8 nM |  |  | COC1CN([C@H]2CC[C@H]([C@H]3COc4c(F)cc(C(=O)NCc5c(SC)cc(C)[nH]c5=O)c(C)c4O3)CC2)C1 [Compound 170] |  | 
10 |  |  | 373 nM |  |  | COC1CN([C@H]2CC[C@@H]([C@@H]3COc4c(F)cc(C(=O)NCc5c(SC)cc(C)[nH]c5=O)c(C)c4O3)CC2)C1 [Compound 172] |  | 
11 |  | 7.2 nM | 5.6 nM | 3.1 nM |  | Cc1cc(Cl)c(CNC(=O)c2cc(Cl)c3c(c2C)O[C@@H]([C@H]2CC[C@H](N(C)C)CC2)CO3)c(=O)[nH]1 [Compound 174] |  | 
12 |  |  | 197 nM |  |  | COC1CN([C@H]2CC[C@H]([C@H]3COc4c(Cl)cc(C(=O)NCc5c(Cl)cc(C)[nH]c5=O)c(C)c4O3)CC2)C1 [Compound 176] |  | 
13 |  |  | 10.8 nM |  |  | COc1cc(C)[nH]c(=O)c1CNC(=O)c1cc(Cl)c2c(c1C)O[C@@H]([C@H]1CC[C@H](OCCF)CC1)CO2 [Compound 180] |  | 

Second part, the compound before the results:

Row | Structure (SMILES) | IC50 ([1]; Karpas-422 cells, 3 days incubation, HTRF signal, read-out: Test Example 2 H3K27Me3 inhibition (Karpas-422) IC50) | IC50 (EZH1/SUZ/EED) | IC50 (Karpas-422 cells; [2]) | IC50 (EZH2/SUZ/EED) | IC50 [1, 3] | IC50 [1, 4] | IC50 (Karpas-422 cells; [5])
14 | CSc1cc(C)[nH]c(=O)c1CNC(=O)c1cc(Cl)c2c(c1C)OC(C1CCC(N(C)C)CC1)CO2 (stereo not drawn) [Compound 3] |  | 4.4 nM | 7.6 nM | 3.3 nM | 2.1 nM |  | 
15 | COc1cc(C)[nH]c(=O)c1CNC(=O)c1cc(Cl)c2c(c1C)OC(C1CCC(N(C)C)CC1)CO2 (stereo not drawn) [Compound 5] |  | 26 nM | 23.2 nM | 2.3 nM | 7.9 nM |  | 
16 | CSc1cc(C)[nH]c(=O)c1CNC(=O)c1cc(Cl)c2c(c1C)O[C@@H]([C@H]1CC[C@@H](N(C)C)CC1)CO2 [Compound 6] |  | 4 nM |  | 2.5 nM |  | 0.59 nM | 1.3 nM
17 | COC1CN([C@H]2CC[C@@H]([C@H]3COc4c(Cl)cc(C(=O)NCc5c(SC)cc(C)[nH]c5=O)c(C)c4O3)CC2)C1 [Compound 8] |  | 6.2 nM | 1.8 nM | 5.6 nM | 2.4 nM |  | 
18 | CSc1cc(C)[nH]c(=O)c1CNC(=O)c1cc(Cl)c2c(c1C)O[C@@H]([C@H]1CC[C@@H](N3CC4COCC4C3)CC1)CO2 (stereo partly drawn) [Compound 14] |  | 3.7 nM | 3.3 nM | 3.7 nM | 6.8 nM |  | 
19 | CSc1cc(C)[nH]c(=O)c1CNC(=O)c1cc(Cl)c2c(c1C)OC(C1CCN(CC3CC3)CC1)CO2 (stereo not drawn) [Compound 16] |  | 29.6 nM | 19.8 nM | 5.2 nM | 85.9 nM |  | 
20 | CSc1cc(C)[nH]c(=O)c1CNC(=O)c1cc(Cl)c2c(c1C)O[C@@H]([C@H]1CC[C@H](N3CCN(C)CC3)CC1)CO2 [Compound 19] |  | 26.3 nM | 89.5 nM | 3.4 nM | 284 nM |  | 
21 | CSc1cc(C)[nH]c(=O)c1CNC(=O)c1cc(Cl)c2c(c1C)O[C@@H]([C@H]1CC[C@@H](N3CCC3)CC1)CO2 [Compound 32] |  | 5.7 nM |  | 5.1 nM |  | 1.7 nM | 2 nM
22 | Cc1cc(C)c(CNC(=O)c2cc(Cl)c3c(c2C)O[C@@H](C2CCC(N(C)C)CC2)CO3)c(=O)[nH]1 (stereo partly drawn) [Compound 53] |  | 26.8 nM | 14.1 nM | 3 nM | 5 nM |  | 
23 | COc1cc(C)[nH]c(=O)c1CNC(=O)c1cc(Cl)c2c(c1C)O[C@@H]([C@H]1CC[C@@H](N3CC[C@H](OC)C3)CC1)CO2 [Compound 119] |  |  | 12.9 nM |  |  |  | 
24 | COc1cc(C)[nH]c(=O)c1CNC(=O)c1cc(Cl)c2c(c1C)O[C@@H]([C@H]1CC[C@H](N3CC[C@H](OC)C3)CC1)CO2 [Compound 120] |  |  | 31.5 nM |  |  |  | 
25 | COc1cc(C)[nH]c(=O)c1CNC(=O)c1cc(Cl)c2c(c1C)O[C@@H]([C@H]1CC[C@@H](N3CC[C@@H](OC)C3)CC1)CO2 [Compound 121] |  |  | 35.8 nM |  | 92.3 nM |  | 
26 | C#Cc1cc(C(=O)NCc2c(SC)cc(C)[nH]c2=O)c(C)c2c1OC[C@H]([C@H]1CC[C@@H](N3CC(OC)C3)CC1)O2 [Compound 165] |  |  | 1.2 nM |  | 1.4 nM |  | 
27 | Cc1c(C(=O)NCC2COC2)cc(Cl)c2c1O[C@@H]([C@H]1CC[C@@H](N(C)C)CC1)CO2 [Compound 167] |  |  |  |  |  |  | > 1000 nM
28 | Cc1c(C(=O)NCC2COC2)cc(Cl)c2c1O[C@@H]([C@H]1CC[C@H](N(C)C)CC1)CO2 [Compound 168] |  |  |  |  |  |  | > 1000 nM
29 | COC1CN([C@H]2CC[C@H]([C@@H]3COc4c(F)cc(C(=O)NCc5c(SC)cc(C)[nH]c5=O)c(C)c4O3)CC2)C1 [Compound 171] |  |  | > 1000 nM |  | > 1000 nM |  | 
30 | Cc1cc(Cl)c(CNC(=O)c2cc(Cl)c3c(c2C)O[C@@H]([C@H]2CC[C@@H](N(C)C)CC2)CO3)c(=O)[nH]1 [Compound 173] |  |  | 124 nM |  |  |  | 
31 | COc1cc(C)[nH]c(=O)c1CNC(=O)c1cc(Cl)c2c(c1C)O[C@@H]([C@H]1CC[C@@H](OCCF)CC1)CO2 [Compound 179] |  |  | 36.6 nM |  |  |  | 
32 | Cc1cc(C)c(CNC(=O)c2cc(Cl)c3c(c2C)CC(C)(C2CCC(N(C)C)CC2)O3)c(=O)[nH]1 (stereo not drawn) [Compound 181] |  | 1350 nM |  | 30.4 nM |  | 410 nM | 
